The subject of data set [1] is TPC1. As to the kind of experiment: Antiproliferative activity against human TPC1 cells. The format is functional, cell-based.
The target of data set [2] is T1, Proto-oncogene tyrosine-protein kinase receptor Ret (Homo sapiens, UniProt P07949). In words: Inhibition of RET by commercial radiometric assay.
Data set [3] deals with T2, Mitogen-activated protein kinase; ERK1/ERK2 (Homo sapiens) (UniProt P27361+P28482). In words: Inhibition of ERK1/2 phosphorylation in human HCT116 cells at 50 to 200 nM by Western blotting. The format is cell-based. To be noted: HCT-116. Background: In western blotting, separated proteins are transferred to a membrane and probed.
Data set [4] deals with T2, Mitogen-activated protein kinase; ERK1/ERK2 (Homo sapiens). In words: Inhibition of nuclear translocation of ERK1/2 in human HCT116 cells at 200 nM by immunofluorescence microscopy. The format is cell-based. The conditions noted are these: HCT-116.
Data set [5] has as its system HCT-116. As to the kind of experiment: Antiproliferative activity against human HCT116 cells. The format is functional, cell-based.
For data set [6], the system named is HCT-116. In words: Antiproliferative activity against human HCT116 cells at 1 uM. The format is functional, cell-based.
Data set [7] deals with TPC1. As to the kind of experiment: Antiproliferative activity against human TPC1 cells at 1 uM. The format is functional, cell-based.
The subject of data set [8] is HCT-116. In words: Toxicity in human HCT116 cells at =< 10 uM. The format is cell-based.
Data set [9] relates to TPC1. As to the kind of experiment: Toxicity in human TPC1 cells at =< 10 uM. The format is cell-based.
The target in data set [10] is T1, Proto-oncogene tyrosine-protein kinase receptor Ret. To be noted: MCF7, 100 nM.
Description: Inhibition of RET in serum starved human MCF7 cells assessed as reduction in GDNF-induced ERK1/2 phosphorylation at 100 nM added 30 mins before GDNF stimulation and incubated for further 45 mins by Western blotting
Data set [11] has the same target. To be noted: TPC1, 50 to 200 nM.
Description: Inhibition of RET in human TPC1 cells expressing constitutively active RET fusion protein assessed as reduction in ERK1/2 phosphorylation at 50 to 200 nM by Western blotting
The target is the same in data set [12]. The conditions noted are these: TPC1, 200 nM.
Description: Inhibition of RET in human TPC1 cells expressing constitutively active RET fusion protein assessed as reduction in nuclear translocation of ERK1/2 at 200 nM by immunofluorescence microscopy

Here are results for 2 compounds from ChEMBL document CHEMBL2057193, “Preparation of 3-substituted-1-isopropyl-1H-pyrazolo[3,4-d]pyrimidin-4-amines as RET kinase inhibitors” (J Med Chem, 2012).

Active and inactive are the calls of the source. The rule behind the calls is not given here.

T1 sequence (P07949 whole entry): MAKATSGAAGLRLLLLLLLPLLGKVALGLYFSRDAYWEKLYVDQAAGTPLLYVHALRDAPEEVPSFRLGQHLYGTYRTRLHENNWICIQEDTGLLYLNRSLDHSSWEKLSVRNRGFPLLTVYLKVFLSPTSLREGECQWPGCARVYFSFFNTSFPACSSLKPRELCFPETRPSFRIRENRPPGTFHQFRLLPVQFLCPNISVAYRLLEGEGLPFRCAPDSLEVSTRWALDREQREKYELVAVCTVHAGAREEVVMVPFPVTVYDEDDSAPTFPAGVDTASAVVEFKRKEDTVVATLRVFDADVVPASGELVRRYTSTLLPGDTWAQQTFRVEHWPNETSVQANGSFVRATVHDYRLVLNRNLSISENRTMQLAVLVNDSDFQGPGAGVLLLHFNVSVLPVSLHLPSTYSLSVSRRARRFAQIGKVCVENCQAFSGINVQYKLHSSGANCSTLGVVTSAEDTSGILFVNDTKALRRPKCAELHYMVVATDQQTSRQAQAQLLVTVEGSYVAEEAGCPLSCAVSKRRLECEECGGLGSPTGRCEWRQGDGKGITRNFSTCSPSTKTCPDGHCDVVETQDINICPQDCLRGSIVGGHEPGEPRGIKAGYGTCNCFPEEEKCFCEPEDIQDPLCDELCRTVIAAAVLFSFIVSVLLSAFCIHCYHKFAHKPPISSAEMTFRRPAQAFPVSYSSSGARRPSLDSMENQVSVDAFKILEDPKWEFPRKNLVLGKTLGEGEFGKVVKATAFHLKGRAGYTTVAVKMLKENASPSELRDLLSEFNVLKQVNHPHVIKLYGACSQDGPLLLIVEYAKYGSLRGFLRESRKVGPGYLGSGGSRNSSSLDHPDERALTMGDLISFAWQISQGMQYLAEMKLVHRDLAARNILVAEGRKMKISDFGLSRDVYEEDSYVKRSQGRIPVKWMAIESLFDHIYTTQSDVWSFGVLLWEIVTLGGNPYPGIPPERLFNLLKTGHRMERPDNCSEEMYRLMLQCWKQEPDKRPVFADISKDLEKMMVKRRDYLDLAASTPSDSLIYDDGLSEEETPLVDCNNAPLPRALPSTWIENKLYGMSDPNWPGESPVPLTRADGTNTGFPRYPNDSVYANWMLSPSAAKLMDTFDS
T2 sequence (P27361 whole entry, looked up): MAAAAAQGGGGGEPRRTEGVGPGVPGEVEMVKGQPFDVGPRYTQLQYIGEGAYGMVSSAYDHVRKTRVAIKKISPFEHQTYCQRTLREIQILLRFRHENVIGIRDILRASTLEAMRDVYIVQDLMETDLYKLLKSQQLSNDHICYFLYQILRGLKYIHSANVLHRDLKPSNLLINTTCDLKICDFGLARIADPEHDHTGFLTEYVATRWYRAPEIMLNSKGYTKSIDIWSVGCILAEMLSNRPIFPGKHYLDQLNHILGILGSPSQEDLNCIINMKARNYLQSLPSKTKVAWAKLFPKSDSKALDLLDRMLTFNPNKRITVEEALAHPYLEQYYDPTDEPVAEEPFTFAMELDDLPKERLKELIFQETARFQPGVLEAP
T2 sequence (P28482 whole entry, looked up): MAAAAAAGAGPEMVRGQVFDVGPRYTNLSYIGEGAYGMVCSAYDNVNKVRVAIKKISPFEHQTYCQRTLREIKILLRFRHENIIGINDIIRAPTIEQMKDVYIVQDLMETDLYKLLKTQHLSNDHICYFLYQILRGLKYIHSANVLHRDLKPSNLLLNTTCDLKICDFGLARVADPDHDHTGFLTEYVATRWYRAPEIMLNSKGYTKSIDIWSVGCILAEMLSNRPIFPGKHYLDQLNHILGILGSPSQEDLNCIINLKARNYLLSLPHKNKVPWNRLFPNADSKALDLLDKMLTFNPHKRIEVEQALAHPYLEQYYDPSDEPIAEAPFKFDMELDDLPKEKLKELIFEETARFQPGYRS

The EC50 is the concentration that produces a half-maximal response. `CNC(=O)c1cc(Oc2ccc(NC(=O)Nc3ccc(Cl)c(C(F)(F)F)c3)cc2)ccn1` [SORAFENIB] came in with an EC50 with TPC1 [1] of 2.6 µM.

Usually IC50 stands for the concentration that gives 50% inhibition. Low readings indicate greater potency, high ones weaker potency. In the case of `CC(C)n1nc(C#Cc2ccccc2)c2c(N)ncnc21`, the half-maximal inhibitory concentration (IC50) in data set [2] was 0.008 µM. Moreover, the inhibition entry (in data set [3]; in [4]; in the data set on HCT-116 [6]) was “inactive” throughout. Moreover, the concentration for a half-maximal effect (EC50) with HCT-116 [5] worked out at 2.4 µM; in the data set on TPC1 [1], 3.3 µM. In addition, the inhibition entry (with TPC1 [7]; in [10]; in data set [11]; in data set [12]) was “Active” throughout. Further, the Activity entry in the data set with HCT-116 [8] and with TPC1 [9] was “Non-toxic” in each case.
